How the values were obtained:
[1] = Hydrophobic stabilization and micellar partition of LNO2; format: physicochemical
Source text: The formation of •NO was followed by EPR (measuring cPTI formation) in the presence of different concentrations of octyl-β-glucopyranoside (OG) and octyl-thio-β-glucopyranoside (OTG). The rate of •NO release was constant and not influenced by these detergents until the critical micellar concentration (CMC) for each was achieved, after which •NO formation was inhibited as the volume of the hydrophobic environment increased (FIG. 24A). Similar results were obtained when measuring •NO formation via conversion of oxymyoglobin to metmyoglobin. Apparent •NO release rates remained constant until OG concentration reached ˜2.8 mg/ml (CMC=2.77 mg/ml (11)). […] The inhibition of the NO2 group loss at 268 nm was paralleled by inhibition of the formation of oxidation products at 320 nm, similarly paralleling the detergent-induced inhibition of •NO release observed by EPR and oxymyoglobin-based detection.
Thus, a plot of 1/v vs. α will yield a linear plot with slope divided by y-axis intercept equal to K−1.

[2] = test system: human vascular endothelial cells and macrophages; assay: Whole Human Genome Oligo Array gene expression; format: cell-based; parameters: CCNE1 down-regulated / CAMK1 down-regulated / TCF4 down-regulated / PPARGC1B down-regulated / RB1 down-regulated / TNF down-regulated / TYK2 down-regulated / STAT1 down-regulated / CAV3 down-regulated / EDARADD down-regulated / DAPK2 down-regulated / CASP8AP2 down-regulated / ITR down-regulated / RAC2 down-regulated / CDC2 down-regulated / CDC42 down-regulated / CCND3 down-regulated / PLAU down-regulated / EGR2 down-regulated / ADRB2 down-regulated / VASP down-regulated / FDPS down-regulated / IL11 down-regulated / AIF1 down-regulated / TGFB1 down-regulated / PIK3CB down-regulated / PTGS1 down-regulated / IRS1 down-regulated / TIMP2 down-regulated / PTGES2 down-regulated / PDGFRA down-regulated / TLR2 down-regulated / E2F2 down-regulated / RACGAP1 down-regulated / LDLR down-regulated / NCOR2 down-regulated / NCR1 down-regulated / CARD9 down-regulated / SRF down-regulated / PDGFA down-regulated / FLJ23091 down-regulated / BCL2A1 down-regulated / TIMP1 down-regulated / PDGFC down-regulated / TIMP3 down-regulated / ARHGEF1 down-regulated / FN1 down-regulated / MMP19 down-regulated / JUNB down-regulated / PPARD down-regulated / MYLK down-regulated / TGFBI down-regulated / ILK down-regulated / MAPKAPK3 down-regulated / ROCK1 down-regulated / IGF1 down-regulated / VEGFB down-regulated / ECGF1 down-regulated / GADD45A up-regulated / CASP1 up-regulated / CASP4 up-regulated / CCNA1 up-regulated / JUN up-regulated / CASP3 up-regulated / GADD45B up-regulated / AATK up-regulated / AMID up-regulated / IL10RA up-regulated / GADD45G up-regulated / IRS2 up-regulated / HO-1, heme oxygenase-1 up-regulated: dose or concentration left out as unconfirmed; conditions: 24 hours
Description: The nitroalkenes of the present invention also display regulatory actions towards the expression of genes related to inflammatory responses, cell growth, cell differentiation, cell signaling, cell death (apoptosis) and metabolism. For example, nitrolinoleate regulates gene expression in human vascular endothelial cells and macrophages. Cells were stimulated with vehicle and linoleic acid (2.5 μM, the latter two treatments as controls) and LNO2O ([…]) for 24 hours. The total RNA was purified with a Qiagen Kit and analyzed with a Whole Human Genome Oligo Array (G4112A, 41K Genes, Agilent). […] In contrast, the native (precursor) fatty acid, linoleic acid, only regulates 14 genes, with an up-regulation of 5 genes and the down-regulation of 9 genes.

[3] = LNO2O 2.5 mM, linoleic acid 2.5 μM

10-nitro-9,12-octadecadienoic acid and 12-nitro-9,12-octadecadienoic acid [LNO2]
partition coefficient K ([1]; FIG. 28 legend): ~1500
stability in organic solvents ([1]; organic solvents such as n-octanol): stable
AATK up-regulated [2]: 1.503
AMID up-regulated [2]: 8.362
CASP1 up-regulated [2]: 2.572
CASP3 up-regulated [2]: 1.689
CASP4 up-regulated [2]: 2.57
CCNA1 up-regulated [2]: 2.558
GADD45A up-regulated [2]: 2.823
GADD45B up-regulated [2]: 1.674
GADD45G up-regulated [2]: 3.155
HO-1, heme oxygenase-1 up-regulated [2]: 4.086
IL10RA up-regulated [2]: 3.173
IRS2 up-regulated [2]: 3.243
JUN up-regulated [2]: 2.454
number of genes down-regulated [2, 3]: > 3000 genes
number of genes regulated [2, 3]: > 5000 genes
number of genes up-regulated [2, 3]: > 2300 genes
ADRB2 down-regulated ([2]; p < 0.05): 2.04 fold
AIF1 down-regulated ([2]; p < 0.05): 3.95 fold
ARHGEF1 down-regulated ([2]; p < 0.05): 1.64 fold
BCL2A1 down-regulated ([2]; p < 0.05): 3.50 fold
CAMK1 down-regulated ([2]; p < 0.05): 2.24 fold
CARD9 down-regulated ([2]; p < 0.05): 3.33 fold
CASP8AP2 down-regulated ([2]; p < 0.05): 1.52 fold
CAV3 down-regulated ([2]; p < 0.05): 1.76 fold
CCND3 down-regulated ([2]; p < 0.05): 1.51 fold
CCNE1 down-regulated ([2]; p < 0.05): 1.58 fold
CDC2 down-regulated ([2]; p < 0.05): 2.75 fold
CDC42 down-regulated ([2]; p < 0.05): 1.65 fold
DAPK2 down-regulated ([2]; p < 0.05): 1.73 fold
E2F2 down-regulated ([2]; p < 0.05): 3.70 fold
ECGF1 down-regulated ([2]; p < 0.05): 1.73 fold
EDARADD down-regulated ([2]; p < 0.05): 1.69 fold
EGR2 down-regulated ([2]; p < 0.05): 2.65 fold
FDPS down-regulated ([2]; p < 0.05): 2.46 fold
FLJ23091 down-regulated ([2]; p < 0.05): 1.74 fold
FN1 down-regulated ([2]; p < 0.05): 3.33 fold
IGF1 down-regulated ([2]; p < 0.05): 1.54 fold
IL11 down-regulated ([2]; p < 0.05): 2.02 fold
ILK down-regulated ([2]; p < 0.05): 2.94 fold
IRS1 down-regulated ([2]; p < 0.05): 2.40 fold
ITR down-regulated ([2]; p < 0.05): 1.68 fold
JUNB down-regulated ([2]; p < 0.05): 1.60 fold
LDLR down-regulated ([2]; p < 0.05): 1.77 fold
MAPKAPK3 down-regulated ([2]; p < 0.05): 2.18 fold
MMP19 down-regulated ([2]; p < 0.05): 1.58 fold
MYLK down-regulated ([2]; p < 0.05): 3.13 fold
NCOR2 down-regulated ([2]; p < 0.05): 1.59 fold
NCR1 down-regulated ([2]; p < 0.05): 2.30 fold
PDGFA down-regulated ([2]; p < 0.05): 2.27 fold
PDGFC down-regulated ([2]; p < 0.05): 1.72 fold
PDGFRA down-regulated ([2]; p < 0.05): 2.36 fold
PIK3CB down-regulated ([2]; p < 0.05): 1.93 fold
PLAU down-regulated ([2]; p < 0.05): 7.58 fold
PPARD down-regulated ([2]; p < 0.05): 3.12 fold
PPARGC1B down-regulated ([2]; p < 0.05): 2.20 fold
PTGES2 down-regulated ([2]; p < 0.05): 1.59 fold
PTGS1 down-regulated ([2]; p < 0.05): 3.95 fold
RAC2 down-regulated ([2]; p < 0.05): 2.47 fold
RACGAP1 down-regulated ([2]; p < 0.05): 2.35 fold
RB1 down-regulated ([2]; p < 0.05): 2.06 fold
ROCK1 down-regulated ([2]; p < 0.05): 1.59 fold
SRF down-regulated ([2]; p < 0.05): 1.56 fold
STAT1 down-regulated ([2]; p < 0.05): 1.74 fold
TCF4 down-regulated ([2]; p < 0.05): 2.63 fold
TGFB1 down-regulated ([2]; p < 0.05): 2.46 fold
TGFBI down-regulated ([2]; p < 0.05): 9.80 fold
TIMP1 down-regulated ([2]; p < 0.05): 3.62 fold
TIMP2 down-regulated ([2]; p < 0.05): 1.92 fold
TIMP3 down-regulated ([2]; p < 0.05): 2.27 fold
TLR2 down-regulated ([2]; p < 0.05): 1.89 fold
TNF down-regulated ([2]; p < 0.05): 2.01 fold
TYK2 down-regulated ([2]; p < 0.05): 2.00 fold
VASP down-regulated ([2]; p < 0.05): 4.85 fold
VEGFB down-regulated ([2]; p < 0.05): 1.51 fold

From patent publication US9867795B2, “Nitrated lipids and methods of making and using thereof” (The UAB Research Foundation, priority 2004, dated 2018)
